Results on 15 compounds are retold here after PubChem BioAssay AID256 (DTP/NCI, 2004).

This assay deals with CD2F1 mice, L1210 leukemia ip, survival T/C. The assay can be described thus: NCI In Vivo Anticancer Drug Screen. Data for tumor model L1210 Leukemia (intraperitoneal) in CD2F1 (CDF1) mice. To be noted: higher = longer survival. Put shortly:
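Ratio T/C, where T is the treated-group value and C the vehicle-dosed control value, from mice implanted with a transplantable tumor.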

[1] abbreviates: endpoint: mean survival time, dose: 100.0 mg/kg/injection, schedule: Q01DX001 (ip), vehicle: saline with Tween-80.
Setting [2] is: endpoint: mean survival time, dose: 200.0 mg/kg/injection, schedule: Q01DX001 (ip), vehicle: saline with Tween-80.
Setting [3] is: endpoint: mean survival time, dose: 400.0 mg/kg/injection, schedule: Q01DX001 (ip), vehicle: saline with Tween-80.
Setting [4] is: endpoint: mean survival time, dose: 12.5 mg/kg/injection, schedule: Q01DX009 (ip), vehicle: saline with Tween-80.
Setting [5] is: endpoint: mean survival time, dose: 200.0 mg/kg/injection, schedule: Q04DX003 (ip), vehicle: saline with Tween-80.
[6] abbreviates: endpoint: mean survival time, dose: 100.0 mg/kg/injection, schedule: Q04DX002 (ip), vehicle: saline.
[7] abbreviates: endpoint: mean survival time, dose: 200.0 mg/kg/injection, schedule: Q04DX002 (ip), vehicle: saline.
Where [8] appears, read: endpoint: mean survival time, dose: 400.0 mg/kg/injection, schedule: Q04DX002 (ip), vehicle: saline.
Setting [9] is: endpoint: mean survival time, dose: 6.25 mg/kg/injection, schedule: Q01DX009 (ip), vehicle: Klucel (hydroxypropylcellulose) (HPC).
Where [10] appears, read: endpoint: mean survival time, dose: 12.5 mg/kg/injection, schedule: Q01DX009 (ip), vehicle: Klucel (hydroxypropylcellulose) (HPC).
The mark [11] stands for this setting: endpoint: mean survival time, dose: 100.0 mg/kg/injection, schedule: Q04DX003 (ip), vehicle: saline with Tween-80.

Structures are written as SMILES. “And” between values parts separate entries of the source, which are not always exact repeats. Identical values can stand only once. Toxic doses and inconclusive results are not listed.

For `CC(Br)(C(=O)O)C1CCCCC1` (centres undefined), the T/C reads like this: under setting [1], 93 % of control; under setting [2], 96 % of control; under setting [3], 99 % of control.
On to `Clc1cc(Cl)c(CBr)cc1CBr`, for which the T/C under setting [4] is 91 % of control and the T/C under setting [5] is 90 % of control.
Turning to `NC(CSCc1cccs1)C(=O)O` (centres undefined), the T/C was 94 % of control (endpoint: mean survival time, dose: 25.0 mg/kg/injection, schedule: Q01DX009 (ip), vehicle: saline); 100 % of control (endpoint: mean survival time, dose: 50.0 mg/kg/injection, schedule: Q01DX009 (ip), vehicle: saline); 90 % of control (endpoint: mean survival time, dose: 100.0 mg/kg/injection, schedule: Q01DX009 (ip), vehicle: saline); 101 % of control (endpoint: mean survival time, dose: 200.0 mg/kg/injection, schedule: Q01DX009 (ip), vehicle: saline); 95 % of control (endpoint: mean survival time, dose: 400.0 mg/kg/injection, schedule: Q01DX009 (ip), vehicle: saline).
With `Nc1ccn(C2OC(CO)C(OP(=O)(O)O)C2O)c(=O)n1` (centres undefined), the T/C is, setting by setting: (endpoint: mean survival time, dose: 4.4 mg/kg/injection, schedule: Q03HX024 (ip), vehicle: saline) 229 % of control; (endpoint: mean survival time, dose: 8.7 mg/kg/injection, schedule: Q03HX024 (ip), vehicle: saline) 252 % of control; (endpoint: mean survival time, dose: 17.4 mg/kg/injection, schedule: Q03HX024 (ip), vehicle: saline) 296 % of control; (endpoint: mean survival time, dose: 34.8 mg/kg/injection, schedule: Q03HX024 (ip), vehicle: saline) 111 % of control; (endpoint: mean survival time, dose: 200.0 mg/kg/injection, schedule: Q01DX009 (oral), vehicle: saline) 159 % of control; (endpoint: mean survival time, dose: 400.0 mg/kg/injection, schedule: Q01DX009 (oral), vehicle: saline) 175 % of control.
As to `O=C(Nc1ccc(Cl)c(Cl)c1)C(Cl)Cl`, the T/C runs as follows: under setting [4], 95 % of control; (endpoint: mean survival time, dose: 25.0 mg/kg/injection, schedule: Q01DX009 (ip), vehicle: saline with Tween-80) 101 % of control; (endpoint: mean survival time, dose: 50.0 mg/kg/injection, schedule: Q01DX009 (ip), vehicle: saline with Tween-80) 107 % of control.
`COC(=O)c1nccnc1N`: the T/C is 96 % of control under setting [6], 105 % of control under setting [7] and 113 % of control under setting [8].
Turning to `O=C(O)c1ccc(Nc2c3ccccc3nc3ccccc23)cc1`, the T/C is 170 % of control and 179 % of control (endpoint: mean survival time, dose: 44.0 mg/kg/injection, schedule: Q01DX009 (ip), vehicle: Klucel (hydroxypropylcellulose) (HPC)); 207 % of control and 225 % of control (endpoint: mean survival time, dose: 66.0 mg/kg/injection, schedule: Q01DX009 (ip), vehicle: Klucel (hydroxypropylcellulose) (HPC)); 121 % of control (endpoint: mean survival time, dose: 75.0 mg/kg/injection, schedule: Q01DX001 (ip), vehicle: Klucel (hydroxypropylcellulose) (HPC)); 154 % of control (endpoint: mean survival time, dose: 75.0 mg/kg/injection, schedule: Q04DX003 (ip), vehicle: Klucel (hydroxypropylcellulose) (HPC)); 119 % of control (endpoint: mean survival time, dose: 88.0 mg/kg/injection, schedule: Q01DX001 (ip), vehicle: Klucel (hydroxypropylcellulose) (HPC)); 167 % of control and 184 % of control (endpoint: mean survival time, dose: 100.0 mg/kg/injection, schedule: Q01DX009 (ip), vehicle: Klucel (hydroxypropylcellulose) (HPC)). The T/C (endpoint: mean survival time, dose: 100.0 mg/kg/injection, schedule: Q04DX003 (ip), vehicle: Klucel (hydroxypropylcellulose) (HPC)) is 162 % of control; the T/C (endpoint: mean survival time, dose: 133.0 mg/kg/injection, schedule: Q04DX002 (ip), vehicle: Klucel (hydroxypropylcellulose) (HPC)) was 167 % of control; the T/C (endpoint: mean survival time, dose: 150.0 mg/kg/injection, schedule: Q04DX002 (ip), vehicle: Klucel (hydroxypropylcellulose) (HPC)) was 166 % of control; the T/C (endpoint: mean survival time, dose: 150.0 mg/kg/injection, schedule: Q04DX003 (ip), vehicle: Klucel (hydroxypropylcellulose) (HPC)) is 172 % of control and 223 % of control; the T/C (endpoint: mean survival time, dose: 200.0 mg/kg/injection, schedule: Q04DX002 (ip), vehicle: Klucel (hydroxypropylcellulose) (HPC)) is 223 % of control; the T/C (endpoint: mean survival time, dose: 225.0 mg/kg/injection, schedule: Q04DX003 (ip), vehicle: Klucel (hydroxypropylcellulose) (HPC)) was 301 % of control. Besides, the T/C by setting is: (endpoint: mean survival time, dose: 300.0 mg/kg/injection, schedule: Q01DX001 (ip), vehicle: Klucel (hydroxypropylcellulose) (HPC)) 171 % of control and 201 % of control; (endpoint: mean survival time, dose: 300.0 mg/kg/injection, schedule: Q04DX002 (ip), vehicle: Klucel (hydroxypropylcellulose) (HPC)) 212 % of control and 293 % of control; (endpoint: mean survival time, dose: 300.0 mg/kg/injection, schedule: Q04DX003 (ip), vehicle: Klucel (hydroxypropylcellulose) (HPC)) 118 % of control; (endpoint: mean survival time, dose: 450.0 mg/kg/injection, schedule: Q04DX002 (ip), vehicle: Klucel (hydroxypropylcellulose) (HPC)) 225 % of control.
In the case of `CCOC(=O)C1(C(=O)OCC)CCC(O)N1C(=O)c1ccccc1[N+](=O)[O-]` (centres undefined), the T/C is, setting by setting: (endpoint: mean survival time, dose: 100.0 mg/kg/injection, schedule: Q01DX001 (ip), vehicle: Klucel (hydroxypropylcellulose) (HPC)) 100 % of control; (endpoint: mean survival time, dose: 200.0 mg/kg/injection, schedule: Q01DX001 (ip), vehicle: Klucel (hydroxypropylcellulose) (HPC)) 96 % of control; (endpoint: mean survival time, dose: 400.0 mg/kg/injection, schedule: Q01DX001 (ip), vehicle: Klucel (hydroxypropylcellulose) (HPC)) 92 % of control.
In the case of `NC1=C(N)C(=O)NC(N)N1` (centres undefined), the T/C was 102 % of control under setting [6], 102 % of control under setting [7] and 100 % of control under setting [8].
For the compound `OCC1OC(n2cnc3c(Nc4ccccc4)ncnc32)C(O)C1O` (centres undefined), the T/C is, setting by setting: (endpoint: mean survival time, dose: 12.5 mg/kg/injection, schedule: Q01DX005 (ip), vehicle: distilled water + Tween-80) 102 % of control; (endpoint: mean survival time, dose: 25.0 mg/kg/injection, schedule: Q01DX005 (ip), vehicle: distilled water + Tween-80) 100 % of control; (endpoint: mean survival time, dose: 50.0 mg/kg/injection, schedule: Q01DX005 (ip), vehicle: distilled water + Tween-80) 100 % of control; (endpoint: mean survival time, dose: 100.0 mg/kg/injection, schedule: Q01DX005 (ip), vehicle: distilled water + Tween-80) 94 % of control; (endpoint: mean survival time, dose: 200.0 mg/kg/injection, schedule: Q01DX005 (ip), vehicle: distilled water + Tween-80) 98 % of control.
As for `Cc1cn(C2CC3O[P@@](=S)(Nc4ccccc4)OCC3O2)c(=O)[nH]c1=O` (some centres undefined), the T/C by setting is: (endpoint: median survival time, dose: 11.5 mg/kg/injection, schedule: Q01DX005 (ip), vehicle: saline with Tween-80) 108 % of control; (endpoint: median survival time, dose: 23.0 mg/kg/injection, schedule: Q01DX005 (ip), vehicle: saline with Tween-80) 103 % of control; (endpoint: median survival time, dose: 46.0 mg/kg/injection, schedule: Q01DX005 (ip), vehicle: saline with Tween-80) 98 % of control.
Consider `Cc1cc(C)c(F)[c]([Hg][Br])c1N`, for which the T/C (endpoint: mean survival time, dose: 3.13 mg/kg/injection, schedule: Q01DX009 (ip), vehicle: Klucel (hydroxypropylcellulose) (HPC)) was 102 % of control; the T/C under setting [9] was 113 % of control; the T/C under setting [10] was 105 % of control.
Consider `Nc1nc(Cl)c2nnn(C3CC(O)C(CO)C3)c2n1` (centres undefined), for which the T/C reads like this: under setting [9], 117 % of control; under setting [10], 106 % of control; (endpoint: mean survival time, dose: 25.0 mg/kg/injection, schedule: Q01DX009 (ip), vehicle: Klucel (hydroxypropylcellulose) (HPC)) 117 % of control.
On to `CC12CCC(=O)C=C1CCC1C2CCC2(C)C(C(=O)O)CCC12` (centres undefined), for which the T/C is 102 % of control under setting [11] and 96 % of control under setting [5].
As to `C/C(=C\C(=O)Nc1ccc(S(=O)(=O)F)cc1)c1ccc([N+](=O)[O-])cc1`, the T/C is, setting by setting: (endpoint: mean survival time, dose: 25.0 mg/kg/injection, schedule: Q04DX002 (ip), vehicle: saline with Tween-80) 103 % of control and 104 % of control; (endpoint: mean survival time, dose: 50.0 mg/kg/injection, schedule: Q04DX002 (ip), vehicle: saline with Tween-80) 96 % of control and 102 % of control; under setting [1], 97 % of control; (endpoint: mean survival time, dose: 100.0 mg/kg/injection, schedule: Q01DX009 (ip), vehicle: saline with Tween-80) 104 % of control and 106 % of control; (endpoint: mean survival time, dose: 100.0 mg/kg/injection, schedule: Q04DX002 (ip), vehicle: saline with Tween-80) 100 % of control (2×) and 104 % of control; under setting [11], 104 % of control. The T/C was 92 % of control under setting [2]; 96 % of control (endpoint: mean survival time, dose: 200.0 mg/kg/injection, schedule: Q01DX009 (ip), vehicle: saline with Tween-80); 96 % of control and 102 % of control and 107 % of control (endpoint: mean survival time, dose: 200.0 mg/kg/injection, schedule: Q04DX002 (ip), vehicle: saline with Tween-80); 101 % of control under setting [5]; 95 % of control under setting [3]; 96 % of control and 100 % of control (endpoint: mean survival time, dose: 400.0 mg/kg/injection, schedule: Q01DX009 (ip), vehicle: saline with Tween-80). Besides, the T/C reads like this: (endpoint: mean survival time, dose: 400.0 mg/kg/injection, schedule: Q04DX002 (ip), vehicle: saline with Tween-80) 98 % of control; (endpoint: mean survival time, dose: 400.0 mg/kg/injection, schedule: Q04DX003 (ip), vehicle: saline with Tween-80) 93 % of control.
